{
  "source": "PubChem BioAssay AID1259411",
  "about": "(Chemical Carcinogenesis Research Information System (CCRIS), 2018)",
  "tested_on": "rodent carcinogenicity bioassays, tumor incidence",
  "experiment": "CCRIS carcinogenicity studies",
  "outline": "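Archive of carcinogenicity, mutagenicity, tumor promotion and tumor inhibition results drawn from journals, NCI reports and other sources, expert-reviewed; covers 1985-2011 and is no longer updated.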",
  "note": "Calls of active or inactive are those of the source. How the calls were made is not given here.",
  "data": [
    {"smiles": "Cc1nn(C)c(Oc2ccccc2)c1/C=N/OCc1ccc(C(=O)OC(C)(C)C)cc1", "values": [
      {"measurement": "carcinogen call", "setting": "Species: Mouse, Strain/Sex: ICR (Crj:CD-1)/Female (50/Group), Route: Oral, Dose: 0, 25, 100, 400, 800 ppm (0; 2.4; 10.2; 41.4; 73.1 mg/kg/day) for 18 mo, study duration 18 mo, Dose: 0, 25, 100, 400, 800 ppm (0; 2.4; 10.2; 41.4; 73.1 mg/kg/day) for 18 mo, study duration 18 mo", "value": "inactive; negative"},
      {"measurement": "carcinogen call", "setting": "Species: Mouse, Strain/Sex: ICR (Crj:CD-1)/Male (50/Group), Route: Oral, Dose: 0, 25, 100, 400, 800 ppm (0; 2.4; 9.5; 38.0; 69.6 mg/kg/day) for 18 mo, study duration 18 mo, Dose: 0, 25, 100, 400, 800 ppm (0; 2.4; 9.5; 38.0; 69.6 mg/kg/day) for 18 mo, study duration 18 mo", "value": "inactive; negative"},
      {"measurement": "carcinogen call", "setting": "Species: Rat, Strain/Sex: CD/Female (50/Group), Route: Oral, Dose: 0, 10, 25, 75, 150 ppm of 97.2% fenpyroximate (0; 0.49; 1.21; 3.81; 8.01 mg/kg/day) for 104 wk, study duration 104 wk, Dose: 0, 10, 25, 75, 150 ppm of 97.2% fenpyroximate (0; 0.49; 1.21; 3.81; 8.01 mg/kg/day) for 104 wk, study duration 104 wk", "value": "inactive; negative"},
      {"measurement": "carcinogen call", "setting": "Species: Rat, Strain/Sex: CD/Male (50/Group), Route: Oral, Dose: 0, 10, 25, 75, 150 ppm of 97.2% fenpyroximate (0; 0.40; 0.97; 3.00; 6.20 mg/kg/day) for 104 wk, study duration 104 wk, Dose: 0, 10, 25, 75, 150 ppm of 97.2% fenpyroximate (0; 0.40; 0.97; 3.00; 6.20 mg/kg/day) for 104 wk, study duration 104 wk", "value": "inactive; negative"}
    ]},
    {"smiles": "c1ccc2cc3c(ccc4ccccc43)cc2c1", "values": [
      {"measurement": "carcinogen call", "setting": "Species: MOUSE, Route: DERMAL, Tumor Site: Type of Lesion: INTEGUMENTARY SYSTEM (SKIN)", "value": "active; positive"},
      {"measurement": "carcinogen call", "setting": "Species: MOUSE, Route: IMPLANT, Tumor Site: Type of Lesion: URINARY BLADDER", "value": "active; positive"},
      {"measurement": "carcinogen call", "setting": "Species: MOUSE, Route: ORAL, Tumor Site: Type of Lesion: LIVER, LUNG", "value": "active; positive"},
      {"measurement": "carcinogen call", "setting": "Species: MOUSE, Route: SUBCUTANEOUS, Tumor Site: Type of Lesion: INJECTION SITE", "value": "active; positive"},
      {"measurement": "carcinogen call", "setting": "Species: MOUSE, Strain/Sex: B6C3F1/MALE, Route: INTRAPERITONEAL, Dose: 0, 1600 NMOL IN 35 µL DMSO TOTAL DOSE AT 1 D (1/7 TOTAL DOSE), 8 D (2/7 TOTAL DOSE), AND 15 D (4/7 TOTAL DOSE) OF AGE (S, Tumor Site: Type of Lesion: LIVER: ADENOMA, CARCINOMA", "value": "active; positive"},
      {"measurement": "carcinogen call", "setting": "Species: MOUSE, Strain/Sex: SWISS/MALE,FEMALE, Route: INTRAPERITONEAL, Dose: 0, 2800 NMOL TOTAL DOSE, D 1, 8, AND 15 OF LIFE, Dose: 0, 2800 NMOL TOTAL DOSE, D 1, 8, AND 15 OF LIFE, Tumor Site: Type of Lesion: LUNG: ADENOMA, MALIGNANT LYMPHOMA", "value": "active; positive"}
    ]},
    {"smiles": "COP(=S)(OC)Oc1ccc([N+](=O)[O-])cc1", "values": [
      {"measurement": "carcinogen call", "setting": "Species: MOUSE, Strain/Sex: B6C3F1/FEMALE, Route: ORAL, Dose: 0, 62.5, 125 PPM IN DIET, Dose: 0, 62.5, 125 PPM IN DIET", "value": "inactive; negative"},
      {"measurement": "carcinogen call", "setting": "Species: MOUSE, Strain/Sex: B6C3F1/MALE, Route: ORAL, Dose: 0, 35, 77 PPM IN DIET, TWA, Dose: 0, 35, 77 PPM IN DIET, TWA", "value": "inactive; negative"},
      {"measurement": "carcinogen call", "setting": "Species: RAT, Strain/Sex: F344/FEMALE, Route: ORAL, Dose: 0, 20, 40 PPM IN DIET, Dose: 0, 20, 40 PPM IN DIET", "value": "inactive; negative"},
      {"measurement": "carcinogen call", "setting": "Species: RAT, Strain/Sex: F344/MALE, Route: ORAL, Dose: 0, 20, 40 PPM IN DIET, Dose: 0, 20, 40 PPM IN DIET", "value": "inactive; negative"}
    ]},
    {"smiles": "CC1=C[C@H]2O[C@@H]3[C@H](O)[C@@H](O)[C@](C)([C@@]2(CO)[C@H](O)C1=O)[C@]31CO1", "values": [
      {"measurement": "carcinogen call", "setting": "Species: MOUSE, Strain/Sex: C57BL/6CRSLC/FEMALE, Route: ORAL, Dose: 0, 6, 12, 30 PPM IN DIET FOR 104 WK (STUDY DURATION: 104 WK), Dose: 0, 6, 12, 30 PPM IN DIET FOR 104 WK (STUDY DURATION: 104 WK)", "value": "inactive; negative"}
    ]},
    {"smiles": "OC1c2cccc3c2[C@]2(O[C@H]2C1O)c1ccccc1-3", "note": "(stereo partly specified)", "values": [
      {"measurement": "carcinogen call", "setting": "Species: MOUSE, Strain/Sex: ICR/FEMALE, Route: INTRAPERITONEAL, Dose: 0, 500 NMOL (TOTAL DOSE) ADMINISTERED IN DOSES OF 1/7, 2/7, AND 4/7 ON DAYS 1, 7, AND 15 OF LIFE, RESPECTIVELY (STUDY DU, Tumor Site: Type of Lesion: LUNG: TUMOR", "value": "active; positive"},
      {"measurement": "carcinogen call", "setting": "Species: MOUSE, Strain/Sex: ICR/MALE, Route: INTRAPERITONEAL, Dose: 0, 500 NMOL (TOTAL DOSE) ADMINISTERED IN DOSES OF 1/7, 2/7, AND 4/7 ON DAYS 1, 7 AND 15 OF LIFE , RESPECTIVELY (STUDY DU, Tumor Site: Type of Lesion: LUNG: TUMOR, LIVER: TUMOR", "value": "active; positive"},
      {"measurement": "carcinogen call", "setting": "Species: RAT, Strain/Sex: STRAIN-CD/FEMALE, Route: INJECTION, Dose: 0, 2, 10 UMOL IN 0.1 ML DMSO INJECTED INTO MAMMARY TISSUE UNDER EACH OF THE 3 LEFT THORACIC NIPPLES FOLLOWED BY SIMILAR, Dose: 0, 2, 10 UMOL IN 0.1 ML DMSO INJECTED INTO MAMMARY TISSUE UNDER EACH OF THE 3 LEFT THORACIC NIPPLES FOLLOWED BY SIMILAR, Tumor Site: Type of Lesion: MAMMARY GLAND: TUMOR", "value": "active; positive"}
    ]},
    {"smiles": "NC(=O)OC1CO1", "note": "(stereo unspecified)", "values": [
      {"measurement": "carcinogen call", "setting": "Species: MOUSE, Strain/Sex: B6C3F1/MALE, Route: INTRAPERITONEAL, Dose: 0, 0.5, 1.25, 2.5 UG/G BW IN 10 µL TRIOCTANOIN ONCE (STUDY DURATION: 9 MO), Dose: 0, 0.5, 1.25, 2.5 UG/G BW IN 10 µL TRIOCTANOIN ONCE (STUDY DURATION: 9 MO), Tumor Site: Type of Lesion: LIVER: HEPATOMA", "value": "active; positive"},
      {"measurement": "carcinogen call", "setting": "Species: MOUSE, Strain/Sex: CD-1/FEMALE, Route: DERMAL, Dose: 0, 11.5 UMOL IN WEEKS 1 AND 2 THEN 5.7 UMOL IN WEEKS 3 AND 4 FOLLOWED BY 3.8 UMOL/WK FOR 28 WK (STUDY DURATION: 42 WK), Tumor Site: Type of Lesion: SKIN: PAPILLOMA, CARCINOMA", "value": "active; positive"},
      {"measurement": "carcinogen call", "setting": "Species: MOUSE, Strain/Sex: STRAIN-A/FEMALE, Route: INTRAPERITONEAL, Dose: 0, 34, 68 NMOL/G BW IN 5 µL TRIOCTANOIN ONCE (STUDY DURATION: 6 MO), Dose: 0, 34, 68 NMOL/G BW IN 5 µL TRIOCTANOIN ONCE (STUDY DURATION: 6 MO), Tumor Site: Type of Lesion: LUNG: ADENOMA", "value": "active; positive"},
      {"measurement": "carcinogen call", "setting": "Species: RAT, Strain/Sex: SPRAGUE-DAWLEY/FEMALE, Route: INTRAMUSCULAR, Dose: 0, 1.15, 2.30 UMOL IN 0.25 ML TRIOCTANOIN 1/WK FOR 10 WK (STUDY DURATION: 18 MO), Dose: 0, 1.15, 2.30 UMOL IN 0.25 ML TRIOCTANOIN 1/WK FOR 10 WK (STUDY DURATION: 18 MO), Tumor Site: Type of Lesion: INJECTION SITE: SARCOMA, MAMMARY GLAND: TUMOR", "value": "active; positive"}
    ]},
    {"smiles": "O=C(O)C1C(C(=O)O)C2(Cl)C(Cl)=C(Cl)C1(Cl)C2(Cl)Cl", "note": "(stereo unspecified)", "values": [
      {"measurement": "carcinogen call", "setting": "Species: MOUSE, Strain/Sex: B6C3F1/FEMALE, Route: ORAL, Dose: 0, 620, 1250 PPM IN DIET FOR 103 WK (STUDY DURATION: 104 WK), Dose: 0, 620, 1250 PPM IN DIET FOR 103 WK (STUDY DURATION: 104 WK)", "value": "inactive; negative"},
      {"measurement": "carcinogen call", "setting": "Species: MOUSE, Strain/Sex: B6C3F1/MALE, Route: ORAL, Dose: 0, 620, 1250 PPM IN DIET FOR 103 WK (STUDY DURATION: 104 WK), Dose: 0, 620, 1250 PPM IN DIET FOR 103 WK (STUDY DURATION: 104 WK), Tumor Site: Type of Lesion: LIVER: HEPATOCELLULAR ADENOMA, LIVER: HEPATOCELLULAR CARCINOMA, LIVER: HEPATOCELLULAR ADENOMA OR CARCINOMA, Tumor Site: Type of Lesion: LIVER: HEPATOCELLULAR ADENOMA, LIVER: HEPATOCELLULAR CARCINOMA, LIVER: HEPATOCELLULAR ADENOMA OR CARCINOMA", "value": "active; positive"},
      {"measurement": "carcinogen call", "setting": "Species: RAT, Strain/Sex: F344/FEMALE, Route: ORAL, Dose: 0, 620, 1250 PPM IN DIET FOR 103 WK (STUDY DURATION: 104 WK), Dose: 0, 620, 1250 PPM IN DIET FOR 103 WK (STUDY DURATION: 104 WK), Tumor Site: Type of Lesion: LIVER: NEOPLASTIC NODULE, LIVER: HEPATOCELLULAR CARCINOMA, LIVER: NEOPLASTIC NODULE OR HEPATOCELLULAR CARCINOMA, UTERUS:, Tumor Site: Type of Lesion: LIVER: NEOPLASTIC NODULE, LIVER: HEPATOCELLULAR CARCINOMA, LIVER: NEOPLASTIC NODULE OR HEPATOCELLULAR CARCINOMA, UTERUS:", "value": "active; positive"},
      {"measurement": "carcinogen call", "setting": "Species: RAT, Strain/Sex: F344/MALE, Route: ORAL, Dose: 0, 620, 1250 PPM IN DIET FOR 103 WK (STUDY DURATION: 104 WK), Dose: 0, 620, 1250 PPM IN DIET FOR 103 WK (STUDY DURATION: 104 WK), Tumor Site: Type of Lesion: LUNG: ALVEOLAR/BRONCHIOLAR ADENOMA, LUNG: ALVEOLAR/BRONCHIOLAR ADENOMA OR CARCINOMA, LIVER: NEOPLASTIC NODULE, LIVER: NE, Tumor Site: Type of Lesion: LUNG: ALVEOLAR/BRONCHIOLAR ADENOMA, LUNG: ALVEOLAR/BRONCHIOLAR ADENOMA OR CARCINOMA, LIVER: NEOPLASTIC NODULE, LIVER: NE", "value": "active; positive"}
    ]}
  ]
}
